With CCCCI the boiling point was 131 °C, the log10 vapour pressure (mmHg) was 1.14 and the melting point was -103 °C. For CC1(C)[C@@H]2CC[C@@]1(C)[C@H](O)C2, the melting point was 209 °C. CCCCc1ccccn1 gave a boiling point of 192 °C and a melting point of 97 °C. For COc1cccc(-c2cccc(OC)c2)c1, the boiling point was 328 °C and the melting point was 36 °C. Work on Oc1cc(Cl)cc(Cl)c1Cl yielded a log10 Koc (L/kg) of 3.61, a log10 vapour pressure (mmHg) of -1.66 and a melting point of 62 °C. Compound O=[N+]([O-])c1ccc(CCc2ccc([N+](=O)[O-])cc2)cc1 has a melting point of 181 °C. CC(C)CC(=O)OC(C)C gave a boiling point of 142 °C. With Cc1ccc2[nH]c(C)cc2c1 the melting point was 115 °C. In the case of COc1cc(C[C@H]2c3cc(OC)c(OC)cc3CCN2C)c(Oc2cc3c(cc2OC)-c2c(OC)c(OC)cc4c2[C@H](C3)N(C)CC4)cc1OC, the melting point is reported as 160 °C. In the case of C=C(C)CC(C)C, the boiling point is reported as 81.6 °C, the log10 vapour pressure (mmHg) is reported as 1.98 and the melting point is reported as -124 °C. For C[C@H]1O[C@@H](n2cc(F)c(=O)[nH]c2=O)[C@H](O)[C@@H]1O, the melting point was 190 °C. With CNC(N)=S the melting point was 120 °C. Work on FC(F)(F)c1nc2c(Cl)c(Cl)ccc2[nH]1 yielded a melting point of 214 °C. In the case of CN(C)C(C)(C)CO, the boiling point is reported as 160 °C and the melting point is reported as 19 °C. Work on CCOB(OCC)OCC yielded a boiling point of 120 °C, a log10 vapour pressure (mmHg) of 1.22 and a melting point of -84.8 °C. Compound N#Cc1cccc(Br)c1 has a boiling point of 225 °C. In the case of O=C(O)c1c(Cl)ccc(Cl)c1Cl, the log10 vapour pressure (mmHg) is reported as -3.26, the melting point is reported as 124 °C and the ready biodegradability is reported as “not readily biodegradable”. COc1ccccc1N=Nc1ccccc1 gave a melting point of 41 °C. With CC(C)Cc1ccccc1 the log10 biodegradation half-life (days) was 1. Work on CCCC(=O)O[C@H]1[C@H](C)O[C@@H](O[C@H]2[C@H](N(C)C)[C@@H](O)[C@H](O[C@H]3[C@@H](CC=O)C[C@@H](C)[C@@H](O)C=CC=CC[C@@H](C)OC(=O)C[C@@H](O)[C@@H]3OC)O[C@@H]2C)C[C@@]1(C)OC(=O)CC yielded a melting point of 116 °C. CCC(C)OC=O (centres undefined) showed a boiling point of 97 °C. For BrCCCCCCCCBr, the boiling point was 271 °C and the melting point was 15.5 °C. For Nc1ccc2ccccc2c1N=Nc1ccccc1, the melting point was 103 °C. Work on CC1=CCC(C(C)C)C=C1 (centres undefined) yielded a boiling point of 172 °C and a log10 vapour pressure (mmHg) of 0.147. Compound O=C1CN=C(c2ccccc2Cl)c2cc([N+](=O)[O-])ccc2N1 has a melting point of 238 °C. Compound COc1cc(OC)nc(Sc2cccc(Cl)c2C(=O)O)n1 has a melting point of 150 °C. Work on Clc1ccc(-c2cc(Cl)c(Cl)c(Cl)c2Cl)cc1 yielded a melting point of 98 °C. With CCCCCCCCCO the ready biodegradability was “readily biodegradable”. Compound COC(C)=O has a boiling point of 56.8 °C, a log10 Henry constant (atm·m³/mol) of -3.94 and a log10 Koa of 2.31. The log10 vapour pressure (mmHg) was 2.33, the melting point was -98 °C and the ready biodegradability was “readily biodegradable”. Compound COC(=O)c1ccccc1S(=O)(=O)NC(=O)Nc1nc(C)cc(C)n1 has a log10 Koc (L/kg) of 1.62 and a melting point of 204 °C. CCCCCCCCCCCC=O showed a log10 vapour pressure (mmHg) of -1.82 and a melting point of 44.5 °C. Work on BrCC(Br)(Br)CBr yielded a melting point of 10.5 °C. Work on CC(C)=CC1C(C(=O)OCc2cccc(Oc3ccccc3)c2)C1(C)C (centres undefined) yielded a log10 vapour pressure (mmHg) of -6.84. Compound CCCC(CC)C(C)C (centres undefined) has a boiling point of 138 °C. Compound O=Cc1cccs1 has a boiling point of 197 °C. With OCC(CO)(CO)COCC(CO)(CO)CO the melting point was 221 °C and the ready biodegradability was “not readily biodegradable”. Work on O=C(O)C1CCCCN1 (centres undefined) yielded a melting point of 264 °C. In the case of O=C(O)c1ccc2ccccc2n1, the melting point is reported as 156 °C and the ready biodegradability is reported as “readily biodegradable”. Work on C[C@H](CCC(=O)O)[C@H]1CC[C@H]2[C@@H]3CC[C@@H]4C[C@H](O)CC[C@]4(C)[C@H]3CC[C@]12C yielded a melting point of 186 °C. O=C(c1ccccc1)C(Cl)Cl showed a boiling point of 249 °C and a melting point of 20.5 °C. With ClC[Si](Cl)(Cl)Cl the boiling point was 118 °C. Compound CC(C)Oc1ccc(Nc2ccccc2)cc1 has a melting point of 79 °C. c1ccc(-c2c3ccccc3c(-c3ccccc3)c3ccccc23)cc1 showed a log10 vapour pressure (mmHg) of -9.84 and a melting point of 246 °C. FC(F)(F)C(F)(F)I showed a boiling point of 13 °C. With Nc1ccc(Cl)cc1C(=O)O the ready biodegradability was “not readily biodegradable”. CCOc1ccc(N)c(N)c1 showed a boiling point of 295 °C and a melting point of 71.5 °C. Work on OC[C@@H](O)[C@H]1O[C@@H]2O[C@H](C(Cl)(Cl)Cl)O[C@@H]2[C@H]1O yielded a melting point of 183 °C. For CC(CC1CCCCC1)C1CCCCC1 (centres undefined), the boiling point was 284 °C and the melting point was -22 °C. CC(=O)Oc1ccc(-c2ccccc2)cc1 showed a melting point of 89 °C. With CC(=O)OCC(COC(C)=O)OC(C)=O the boiling point was 259 °C, the log10 vapour pressure (mmHg) was -2.61 and the ready biodegradability was “readily biodegradable”. For CCCCCCC(Cl)Cl, the boiling point was 191 °C. Work on CC(=O)Cc1ccccc1 yielded a boiling point of 216 °C and a melting point of -15 °C. In the case of NS(=O)(=O)c1ccc(S(=O)(=O)CCO)cc1, the melting point is reported as 165 °C. Cc1cc(C2(c3ccc(O)c(C)c3)OC(=O)c3ccccc32)ccc1O showed a melting point of 223 °C. With c1ccc2c(c1)ccc1ccc3ccccc3c12 the melting point was 68 °C. c1ccc(OP(Oc2ccccc2)Oc2ccccc2)cc1 gave a boiling point of 360 °C and a melting point of 25 °C. O=C1Nc2ccc(Br)cc2C1=O gave a melting point of 250 °C. Work on O=[N+]([O-])c1ccc(Oc2ccc(N=C=S)cc2)cc1 yielded a melting point of 110 °C. CCOC(=O)c1ccc(OCC)cc1 showed a boiling point of 275 °C. In the case of O=C1c2ccccc2C(=O)N1SC(F)(Cl)Cl, the ready biodegradability is reported as “not readily biodegradable”. Compound CCC1(CC)COC(=O)NC1=O has a melting point of 97.5 °C. Work on CC(=O)OCC=Cc1ccccc1 yielded a boiling point of 265 °C. CC[Si](F)(F)CC showed a boiling point of 61 °C and a melting point of -78.7 °C. Nc1cccc(Br)c1 showed a boiling point of 251 °C and a melting point of 18.5 °C. Work on COc1cc(-c2ccc(N=C=O)c(OC)c2)ccc1N=C=O yielded a melting point of 114 °C.

Source: the OPERA property sets (Mansouri et al. 2018)
